Test results: the supplement of paper PMC10307832

Columns and labels:
Assay in all cases: relative viability (nuclei count vs DMSO), 5 days (fraction); higher = more cells survive
[1] = compound: Cc1nc(Nc2ncc(C(=O)Nc3c(C)cccc3Cl)s2)cc(N2CCN(CCO)CC2)n1 [Dasatinib] + Cc1cc(Nc2cc(N3CCN(C)CC3)nc(Sc3ccc(NC(=O)C4CC4)cc3)n2)n[nH]1 [Tozasertib] (partner 0.1 µM)
Summary of the method: (§1)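 Lung cancer cell lines were pin-tool dosed in 1536-well plates on the day after seeding, with either a lone drug or a fixed anchor-drug dose plus five library-drug doses (not always all listed) in √10 steps. Nuclei were counted on 4× images after 5 days. Relative viability is the ratio of treated-well to vehicle-well nuclei counts, with each value a median of duplicate plates.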

[2] = compound: C1CC1C(=O)NC2=NNC3=C2C=CC(=C3)C4=CC(=CC=C4)C(=O)NC5CC5 [XMD13-2] + O=C(c1cc(Cc2n[nH]c(=O)c3ccccc23)ccc1F)N1CCN(C(=O)C2CC2)CC1 [Olaparib] (partner 8 µM)
Summary of the method: as §1

[3] = compound: Cc1nc(Nc2ncc(C(=O)Nc3c(C)cccc3Cl)s2)cc(N2CCN(CCO)CC2)n1 [Dasatinib] + CCNC(=O)c1noc(-c2cc(C(C)C)c(O)cc2O)c1-c1ccc(CN2CCOCC2)cc1 [Luminespib] (partner 0.01 µM)
Summary of the method: as §1

[4] = compound: C1CC1C(=O)NC2=NNC3=C2C=CC(=C3)C4=CC(=CC=C4)C(=O)NC5CC5 [XMD13-2] + C[C@]1(O)C[C@@H](c2nc(-c3ccc4ccc(-c5ccccc5)nc4c3)c3c(N)nccn32)C1 [Linsitinib] (partner 1 µM)
Summary of the method: as §1

Cell Line | relative viability ([1]; first compound 0.005 µM) | relative viability ([1]; first compound 0.01581 µM) | relative viability ([1]; first compound 0.05 µM) | relative viability ([1]; first compound 0.1581 µM) | relative viability ([1]; first compound 0.5 µM) | relative viability ([2]; first compound 0.05 µM) | relative viability ([2]; first compound 0.1581 µM) | relative viability ([2]; first compound 0.5 µM) | relative viability ([2]; first compound 1.581 µM) | relative viability ([2]; first compound 5 µM) | relative viability ([3]; first compound 0.005 µM) | relative viability ([3]; first compound 0.01581 µM) | relative viability ([3]; first compound 0.05 µM) | relative viability ([3]; first compound 0.1581 µM) | relative viability ([3]; first compound 0.5 µM) | relative viability ([4]; first compound 0.05 µM) | relative viability ([4]; first compound 0.1581 µM) | relative viability ([4]; first compound 0.5 µM) | relative viability ([4]; first compound 1.581 µM) | relative viability ([4]; first compound 5 µM)
NCI-H1355 | 0.585 | 0.421 | 0.459 | 0.401 | 0.347 | 0.755 | 0.716 | 0.807 | 0.762 | 0.773 | 0.766 | 0.561 | 0.569 | 0.458 | 0.435 | 0.973 | 0.834 | 0.851 | 0.825 | 0.894
NCI-H1395 | 0.819 | 0.713 | 0.723 | 0.555 | 0.4 | 0.48 | 0.493 | 0.46 | 0.477 | 0.504 | 0.684 | 0.627 | 0.663 | 0.443 | 0.363 | 1.06 | 0.984 | 1 | 1.11 | 1.28
NCI-H1437 | 0.431 | 0.38 | 0.394 | 0.32 | 0.314 | 0.61 | 0.617 | 0.64 | 0.64 | 0.634 | 1.11 | 1.12 | 1.16 | 1.08 | 0.665 | 1.25 | 1.09 | 1.08 | 1.04 | 1.06
NCI-H1651 | 0.679 | 0.611 | 0.724 | 0.522 | 0.656 | 0.174 | 0.206 | 0.19 | 0.184 | 0.188 | 0.742 | 0.723 | 0.868 | 0.677 | 0.63 | 0.964 | 0.961 | 1.05 | 1.07 | 1.01
NCI-H1666 | 0.632 | 0.616 | 0.67 | 0.565 | 0.309 | 0.752 | 0.736 | 0.793 | 0.742 | 0.777 | 0.992 | 1.05 | 1.06 | 0.88 | 0.459 | 0.869 | 0.804 | 0.741 | 0.818 | 0.86
NCI-H1734 | 0.26 | 0.285 | 0.235 | 0.165 | 0.181 | 0.769 | 0.628 | 0.616 | 0.594 | 0.523 | 0.185 | 0.191 | 0.159 | 0.167 | 0.156 | 0.893 | 0.996 | 0.938 | 0.784 | 0.743
NCI-H1755 | 0.584 | 0.532 | 0.516 | 0.312 | 0.21 | 0.878 | 0.892 | 0.94 | 0.91 | 0.84 | 0.522 | 0.301 | 0.375 | 0.303 | 0.16 | 1.04 | 0.942 | 1.06 | 0.963 | 1.02
NCI-H1793 | 0.231 | 0.19 | 0.181 | 0.146 | 0.147 | 1.23 | 0.812 | 0.95 | 0.927 | 0.983 | 0.164 | 0.14 | 0.148 | 0.128 | 0.104 | 0.882 | 0.811 | 0.852 | 0.713 | 0.999
NCI-H1915 | 0.435 | 0.372 | 0.301 | 0.173 | 0.157 | 0.273 | 0.253 | 0.287 | 0.254 | 0.269 | 0.818 | 0.601 | 0.673 | 0.208 | 0.149 | 1.15 | 1.13 | 1.07 | 1.1 | 1.09
NCI-H1944 | 0.259 | 0.223 | 0.201 | 0.111 | 0.104 | 0.454 | 0.402 | 0.408 | 0.55 | 0.414 | 0.73 | 0.625 | 0.609 | 0.448 | 0.129 | 1.24 | 1.18 | 1.26 | 1.29 | 1.34
NCI-H1975 | 0.692 | 0.677 | 0.648 | 0.377 | 0.245 | 0.89 | 0.798 | 0.828 | 0.871 | 0.792 | 0.177 | 0.212 | 0.155 | 0.178 | 0.139 | 1.08 | 0.926 | 0.968 | 0.972 | 1.07
NCI-H1993 | 0.524 | 0.435 | 0.563 | 0.448 | 0.377 | 1.1 | 0.924 | 0.507 | 0.813 | 0.952 | 0.883 | 0.598 | 0.971 | 0.432 | 0.543 | 0.807 | 0.78 | 0.731 | 0.743 | 0.694
NCI-H2009 | 0.738 | 0.65 | 0.679 | 0.4 | 0.179 | 0.663 | 0.685 | 0.727 | 0.673 | 0.745 | 1.05 | 1.02 | 1.1 | 0.605 | 0.168 | 1.19 | 1.19 | 1.13 | 1.2 | 1.16
NCI-H2023 | 0.304 | 0.316 | 0.293 | 0.245 | 0.219 | 0.567 | 0.472 | 0.504 | 0.492 | 0.507 | 0.646 | 0.669 | 0.599 | 0.518 | 0.507 | 0.697 | 0.684 | 0.572 | 0.649 | 0.854
NCI-H2085 | 0.737 | 0.641 | 0.564 | 0.229 | 0.214 | 0.771 | 0.695 | 0.805 | 0.728 | 0.768 | 0.411 | 0.307 | 0.459 | 0.275 | 0.166 | 0.894 | 0.819 | 0.873 | 0.984 | 0.963
NCI-H2087 | 0.289 | 0.21 | 0.246 | 0.185 | 0.113 | 0.643 | 0.607 | 0.691 | 0.562 | 0.567 | 0.211 | 0.133 | 0.152 | 0.148 | 0.149 | 0.922 | 0.991 | 0.869 | 0.811 | 0.784
NCI-H2126 | 0.832 | 0.732 | 0.773 | 0.654 | 0.348 | 0.922 | 0.863 | 0.894 | 0.821 | 0.929 | 0.837 | 0.792 | 0.835 | 0.55 | 0.375 | 0.697 | 0.693 | 0.755 | 0.662 | 0.703
NCI-H2228 | 0.231 | 0.232 | 0.216 | 0.185 | 0.184 | 0.834 | 0.517 | 0.623 | 0.554 | 0.747 | 0.158 | 0.095 | 0.145 | 0.0907 | 0.101 | 0.735 | 0.83 | 0.768 | 0.546 | 0.622
NCI-H2347 | 0.56 | 0.454 | 0.363 | 0.238 | 0.263 | 0.608 | 0.538 | 0.598 | 0.532 | 0.601 | 0.404 | 0.359 | 0.266 | 0.23 | 0.276 | 0.973 | 0.951 | 0.973 | 0.924 | 0.972
NCI-H2405 | 0.639 | 0.468 | 0.448 | 0.222 | 0.161 | 0.931 | 0.874 | 0.931 |  | 0.843 | 0.501 | 0.309 | 0.309 | 0.247 | 0.142 | 0.936 | 0.975 | 0.958 | 0.939 | 1.03
NCI-H3122 | 0.38 | 0.388 | 0.414 | 0.373 | 0.292 | 0.726 | 0.649 | 0.697 | 0.702 | 0.629 | 0.0996 | 0.0732 | 0.124 | 0.0691 | 0.0615 | 1.02 | 1.01 | 1.04 | 1.06 | 0.951
PC-3 [JPC-3] | 0.895 | 0.859 | 0.976 | 0.799 | 0.579 | 1.16 | 1.12 | 1.12 |  | 1.05 | 0.741 | 0.646 | 0.76 | 0.576 | 0.389 | 0.915 | 0.961 | 1.01 | 0.906 | 1.01
PC-14 | 0.54 | 0.583 | 0.514 | 0.667 | 0.227 | 0.299 | 0.259 | 0.266 | 0.271 | 0.467 | 0.237 | 0.113 | 0.152 | 0.158 | 0.105 | 0.986 | 1.04 | 0.958 | 0.878 | 0.927
RERF-LC-KJ | 0.52 | 0.511 | 0.44 | 0.487 | 0.406 | 0.971 | 0.917 | 0.928 | 0.983 | 0.985 | 1.3 | 1.05 | 1.06 | 0.982 | 0.993 | 0.916 | 0.89 | 0.947 | 0.817 | 0.871
SK-LU-1 | 0.272 | 0.194 | 0.156 | 0.101 | 0.0919 | 0.499 | 0.444 | 0.514 | 0.444 | 0.422 | 0.162 | 0.15 | 0.151 | 0.104 | 0.118 | 1.1 | 1.19 | 1.45 | 0.929 | 1.14
SK-MES-1 | 0.972 | 1.02 | 0.938 | 0.556 | 0.22 | 0.906 | 0.646 | 0.804 | 0.73 | 0.761 | 0.844 | 0.656 | 0.353 | 0.128 | 0.154 | 1.11 | 1.03 | 1.01 | 1.01 | 1.16
SW 1573 | 0.174 | 0.189 | 0.193 | 0.128 | 0.131 | 0.66 | 0.479 | 0.497 | 0.395 | 0.287 | 0.211 | 0.216 | 0.272 | 0.139 | 0.154 | 0.82 | 0.745 | 0.849 | 0.71 | 0.577
